Series [1] is described as follows: Blood pressure, heart rate and rectal temperature in awake normotensive rats (#). In kind it is in vivo, rat (normotensive Sprague-Dawley). As to conditions: 0.2 μmol/kg i.v. Here is the method: (§1) The male spontaneously hypertensive rats (SHR), or normotensive Sprague-Dawley rats # were implanted wit catheters in the arteria carotis and vena jugularis. The blood pressure (BP), heart rate (HR) and rectal temperature were recorded 24 hours later in the awake rat after per oral (p.o.) or intravenous *i.v.) administration of test drugs. Recording time was at least 90 minutes. Shown are the maximal effects during the 90 min recording period expressed as the deviation from baseline values (SHR:BP; 174±6 mmHG, HR; 366±10 beats/min, RT; 38.7±0.15 C and normotensives: BP; 111±3 mmHG, HR; 369±15 beats/min, RT; 38.7±0.23 C, means ±SEM, n=7) (means ±SEM, n=3-4). In case of a biphasic response (heart rate) during the 90 min, both maximal and minimal levels are shown period. The bioavailability calculations were based on the areas under the curves after po and iv administration.
(§2) *denotes statistical significant difference (p<0.05, or less) compared to saline treated controls (ANOVA followed by Fischer's test).

Series [2] deals with motor activity / gross behavior (DA or 5-HT behavioral syndrome). Description: Motor activity and gross behavior in reserpine-pretreated rats. It counts as in vivo, rat. The text has this:
Antagonism of the reserpine-induced "neuroleptic syndrome" in the rat (gross behavior)
Depletion of the monoamine stores with reserpine brings about a "neuroleptic syndrome" characterized by hypomotility, catalepsy, muscle rigidity, hunch-backed posture as well as a number of other central and peripheral signs of monoamine depletion. The whole or parts of this syndrome can be reversed by the administration of drugs that stimulate dopamine or 5-HT receptors directly or indirectly.
Stimulation of the dopamine receptors, with apomorphine for example, gives rise to both locomotion and stereotyped behavior such as sniffing, gnawing and jumping. On the other hand, stimulation of the 5-HT receptors, with 5-hydroxytryptophan (5-HTP) combined with MAO-inhibitors for example, gives rise to a very different behavior.
(§3) Rats (150-300 g) pretreated with reserpine (5 mg/kg, 18 hours before) were given the test compounds. Gross behavioral observations (changes in motility, hindleg abduction, etc.) were made. Subsequent administration of NSD 1015, decapitation, brain dissection (corpora striata, the limbic forebrain and the remaining hemispheral portions (mainly cortex) or rat brain), homogenization, centrifugation, ion-exchange chromatography and spectrofluorimetric measurements (all as described in detail by Wikstrom, et al., M. Med. Chem., 21, 864-867, 1978 and reference cited therein), or by HPLC/EC, gave the actual […] and 5-HTP levels. Several doses (n=4-6) were tested for each compound and brain area. The dose of a compound giving 50% of the maximal reduction of the 5-HTP level in the rat brain part was then estimated.
(§4) "+" indicates a motoric activation of the animals.

The test system of series [3] is central 5-HT receptor (5-HTP accumulation in the limbic forebrain). The series is described as follows: In vivo rat brain tryptophan hydroxylation (5-HTP accumulation, limbic forebrain) after reserpine pretreatment and NSD 1015. As to conditions: reserpine-pretreated rats, read-out: 5-HTP ED50 (limb). Here is the method:
(§5) In vivo determination of a rat brain tyrosine and tryptophan hydroxylation after reserpine pretreatment (biochemically monitored dopamine and 5-HT receptor activity).
(§6) The compounds under evaluation were tested biochemically for central dopamine and 5-HT receptor (pre- and/or post-synaptic) stimulating activity. The concept of this biochemical screening method is that a dopamine or 5-HT-receptor agonist will stimulate the receptor and through regulatory feedback systems effect a decline in tyrosine or tryptophan hydroxylating activity, respectively, and a subsequent reduction in the synthesis rate for dopamine and 5-HT in the presynaptic neuron. Dopa and 5-HTP formation, as determined after in vivo inhibition of the aromatic L-amino acid decarboxylase with NSD 1015 (3-hydroxybenzylhydrazine hydrochloride) are taken as indirect measures of dopamine and 5-HT synthesis rates, respectively as described by Wikstrom et al., J. Med. Chem., 27, 1030, 1984.
as §3, §4

Series [4] relates to central dopamine receptor (DOPA accumulation in the striatum). The series is described as follows: In vivo rat brain tyrosine hydroxylation (DOPA accumulation, striatum) after reserpine pretreatment and NSD 1015. The conditions noted are these: sc, reserpine-pretreated rats, bracket = highest dose tested, read-out: Dopa ED50 (stri). The protocol:
as §5, §6
Rats (150-300 g) pretreated with reserpine (5 mg/kg, 18 hours before) were given the test compounds. Gross behavioral observations (changes in motility, hindleg abduction, etc.) were made. […]

Series [5] in a line: Stability remark on isolated product. In kind it is physicochemical.
A short description of series [6]: Blood pressure, heart rate and rectal temperature in awake spontaneously hypertensive rats (SHR). It counts as in vivo, rat (spontaneously hypertensive. The conditions noted are these: for Δtemp max: rectal; for bioavailability: rat, in vivo. Here is the method:
as §1, §2

The test system of series [7] is dopamine receptors. As to conditions: cited from earlier work.
In series [8] the test system is central DA receptor. As to conditions: cited from earlier work.
Series [9] relates to 5-HT1A sites. As to conditions: 3H-8-OH-DPAT, rat brain homogenates; cited from earlier work.
The target of series [10] is noradrenaline (NA) (α2) receptor. The series is described as follows: In vitro binding, brain noradrenaline alpha2 receptor sites. The arrangement: species or system rat. The conditions noted are these: non-pretreated rats.
Series [11] has as its system 5-HT1A. The conditions noted are these: cited from earlier work.
Setting [12] is: sc, bracket = highest dose tested.
The mark [13] stands for this setting: 2.0 μmol/kg i.v., (±) 13a / (±) 13b.
Setting [14] is: 2.0 μmol/kg i.v., second printed (±) 13a line (biphasic, maximal level) / first printed (±) 13b line.
Setting [15] is: 10.0 μmol/kg i.v., first printed (±) 13a line, no # printed.
[16] abbreviates: 10.0 μmol/kg i.v., second printed (±) 13a line.
The mark [17] stands for this setting: 10.0 μmol/kg p.o., (±) 13a (biphasic, maximal level) / first printed (±) 13b line.
The mark [18] stands for this setting: 10.0 μmol/kg p.o., (±) 13a / first (±) 13b.

Where a name gives a salt, the structure may show the parent alone. Read-outs that look alike come from different tables or passages of the source. Bounds are passed on as bounds.

The source of these data is patent US5461061A, “Centrally acting 6,7,8,9-tetrahydro-3H-benz(E)indole heterocyclics” (priority 1993, dated 1995).

For orientation: ED50 means the dose that gives a 50% effect, or the effect in half of the subjects. One may read the IC50 as the concentration that inhibits the measured activity by half.

In series [1], `CCCN(CCC)C1CCc2cccc(O)c2C1` (racemic) [Compound 8-OH-DPAT, reference compound] returned a ΔBP max of -12 ± 6 mm Hg and a ΔHR max of -83 ± 16 beats/min. In [1] (rectal), this molecule had a Δtemp max of -1.5 ± 0.27 °C. In [2] (sc), the “Mot. act. (+/-)” value is listed as “++5-HT”. The ED50 in series [3] (po) was found to be 3 µmol/kg. The ED50 in [3] (setting [12]) turned out to be 0.048 µmol/kg.

Take `CCCN(CCC)C1COc2ccc3[nH]ccc3c2C1` (racemic) [(±)-21, 8-N,N-dipropylamino-8,9-dihydro-2H-pyrano-(3,2-e)-indol]: in [2] (sc), the “Mot. act. (+/-)” value is given as “+DA”. For the same molecule, the ED50 in series [4] was 1 µmol/kg; in series [3] (setting [12]), 3.1 µmol/kg.

Consider `CN(C)C1CCc2ccc3[nH]cc(Br)c3c2C1` (stereo not drawn) [Example 12, 1-Bromo-6,7,8,9-tetrahydro-N,N-dimethyl-8-amino-3H-benz[e]indole], for which, in series [5], the “stability of the product” value was “unstable”.

For the molecule `CN(C)C1CCc2ccc3[nH]cc(C=O)c3c2C1` (racemic) [(±)-13a, 1-Formyl-6,7,8,9-tetrahydro-N,N-dimethyl-3H-benz(e)indole-8-amine], the ΔBP max in [6] (2.0 μmol/kg i.v., (±) 13a) is recorded as -12 ± 4 mm Hg; in [6] (setting [13]), -60 ± 5 mm Hg; in series [6] (2.0 μmol/kg p.o.), -23 ± 2 mm Hg; in series [6] (setting [15]), -3 ± 1 mm Hg; in series [6] (setting [16]), -57 ± 4 mm Hg; in series [6] (setting [18]) it was -43 ± 22 mm Hg. In addition, the ΔHR max result in [6] (2.0 μmol/kg i.v., (±) 13a) is reported as “+35 ± 34 beats/min”; in series [6] (setting [14]), “+55 ± 14 beats/min”; in series [6] (2.0 μmol/kg p.o.), “+37 ± 44 beats/min”; in [6] (10.0 μmol/kg i.v., (±) 13a, biphasic, maximal level), “+87 ± 18 beats/min”; in series [6] (setting [15]) it was “+70 ± 47 beats/min”; in series [6] (setting [17]), “+24 ± 43 beats/min”. In addition, the “ΔHR max (minimal level of biphasic response)” value in series [6] (2.0 μmol/kg i.v., (±) 13a) is given as -33 ± 23 beats/min; in [6] (setting [16]), -37 ± 3 beats/min; in series [6] (10.0 μmol/kg p.o.), -39 ± 18 beats/min. The “duration ΔBP” value was 150 min in series [6] (setting [13]), greater than 90 min in series [6] (setting [16]) and 75 min in [6] (setting [18]). The Δtemp max is -0.2 ± 0.65 °C in [6] (setting [13]); -0.2 ± 0.40 °C in series [6] (2.0 μmol/kg i.v., (±) 13a); “+1.2 ± 0 °C” in series [6] (2.0 μmol/kg p.o.); -1.0 ± 0.15 °C in [6] (setting [15]); -0.7 ± 0.33 °C in series [6] (setting [16]); “+0.7 ± 0.32 °C” in [6] (setting [18]). In addition, the bioavailability in series [6] (10 umol/kg, 10.0 μmol/kg p.o., from areas under the curves after po and iv administration, read-out: Bioavail) is 48%. Also, the “Mot. act. (+/-)” value in series [2] (po) and in series [2] (sc) was “(+)5-HT” throughout. Moreover, the ED50 came to 7 µmol/kg in series [3] (po) and 4 µmol/kg in series [3] (setting [12]).

Turning to `O=C1CC2(CCCC2)CC(=O)N1CCCCN1CCN(c2ncccn2)CC1` [Buspirone hydrochloride], in [7], the dopamine receptor antagonism result is reported as “antagonizes dopamine receptors at the same dose it stimulates 5-HT1A receptors”.

For `CCCN(CCC)C1CCc2cc3cc[nH]c3cc2C1` (stereo not drawn) [5,6,7,8-N,N-di-n-propyl-1H-benz(f)indole-7-amine], in series [8], the dopaminergic activity result was “dopaminergically inactive”.

`CN(C)[C@@H]1CCc2ccc3[nH]ccc3c2C1` [R-6,7,8,9-tetrahydro-N,N-dimethyl-3H-benz(e)indole-8-amine]: in [9], the 5-HT1A binding affinity result is given as “high affinity”.

Turning to `CCCN(CCC)C1COc2ccc3[nH]cc(C=O)c3c2C1` (racemic) [(±)-22, 1-formyl-8-N,N-dipropylamino-8,9-dihydro-2H-pyrano-(3,2-e)indole], in [2] (sc), the “Mot. act. (+/-)” value is on record as “+5-HT”. Moreover, the ED50 in [3] (setting [12]) is 0.4 µmol/kg.

`CCCN(CCC)C1CCc2ccc3[nH]cc(C=O)c3c2C1` (racemic) [(±)-13b, 1-formyl-6,7,8,9-tetrahydro-N,N-dipropyl-3H-benz(e)indole-8-amine]: the “duration ΔBP” value in [6] (setting [13]) is listed as 90 min; in series [6] (setting [18]), greater than 120 min; in [6] (10.0 μmol/kg p.o., (±) 13b), 60 min. For the same molecule, the ΔBP max was -35 ± 3 mm Hg in [6] (setting [13]); “+14 ± 1 mm Hg” in series [6] (2.0 μmol/kg i.v., (±) 13b); -55 ± 5 mm Hg in series [6] (setting [18]); “+28 ± 6 mm Hg” in series [6] (10.0 μmol/kg p.o., (±) 13b). Besides, the Δtemp max is -1.5 ± 0.3 °C in [6] (setting [13]); -1.6 ± 0.2 °C in [6] (2.0 μmol/kg i.v., (±) 13b); -1.0 ± 0.3 °C in [6] (setting [18]); -0.8 ± 0.4 °C in series [6] (10.0 μmol/kg p.o., (±) 13b). Further, the ΔHR max is on record as -70 ± 15 beats/min in series [6] (2.0 μmol/kg i.v., (±) 13b); “+110 ± 10 beats/min” in [6] (setting [14]); “+78 ± 11 beats/min” in series [6] (setting [17]); “+70 ± 30 beats/min” in series [6] (10.0 μmol/kg p.o., (±) 13b). Besides, the bioavailability in series [6] (po) was determined as 36%. In addition, the IC50 in series [10] was found to be 3700 nM. Also, the “Mot. act. (+/-)” value in [2] (sc) was “+5-HT”. In addition, the ED50 in series [3] (setting [12]) came to 0.06 µmol/kg.

For the molecule `CN(C)C1CCc2ccc3[nH]ccc3c2C1` (racemic) [6,7,8,9-tetrahydro-N,N-dimethyl-3H-benz(e)indole-8-amine], the 5-HT1A binding affinity entry in [9] is “high affinity”. The “5-HT1A agonist properties in vivo” value in series [11] is reported as “exhibits 5-HT1A agonist properties in vivo”.

As to `CN(C)[C@@H]1CCc2ccc3[nH]cc(C=O)c3c2C1` [(+)-13a, (+)-1-formyl-6,7,8,9-tetrahydro-N,N-dimethyl-3H-benz(e) indole-8-amine], the IC50 in series [10] worked out at 140 nM. The “Mot. act. (+/-)” value in [2] (sc) was “+5-HT”. Moreover, in series [3] (setting [12]), the ED50 is 1 µmol/kg.

For `CCCN(CCC)C1CCc2ccc3[nH]ccc3c2C1` (racemic) [(±)-12b, 6,7,8,9-tetrahydro-N,N-dipropyl-3H-benz(e)indole-8-amine], the “Mot. act. (+/-)” value in [2] (sc) was “DA + 5-HT”. Moreover, the ED50 in [4] amounted to 0.28 µmol/kg; in series [3] (setting [12]), 0.1 µmol/kg.

In the case of `CC1(C)CC(=O)N(CCCCN2CCN(c3ncccn3)CC2)C(=O)C1` [gepirone], in series [7], the dopamine receptor antagonism result is listed as “has dopamine antagonist properties”.
